Where a name gives a salt, the structure may show the parent alone.
Biological target: T1, Human IP6K1 (Homo sapiens, UniProt Q92551)
T1 construct: GST (N, cleaved yes); made in house; host or cells: C43 E. coli, pGEX-6P-2
Test: IP6K1 high-throughput screen of the Sigma LOPAC (ADP-Glo Max, single point);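 further: final compound concentration 10µM in 5% DMSO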
Assay type: biochemical

[1] = LOPAC single-point screen, ADP-Glo Max raw signal per well
[2] = LOPAC single-point screen, Z-score from raw signal with plate average and StDev
[3] = LOPAC single-point screen, Z-score against plate average and StDev
[4] = LOPAC single-point screen, ADP-Glo Max luminescence raw signal per well
[5] = LOPAC single-point screen, Z-score from plate average and StDev
[6] = LOPAC single-point screen, Z-score relative to plate average and StDev
[7] = Sigma LOPAC single-point screen, ADP-Glo Max raw signal per well
[8] = Sigma LOPAC single-point screen, Z-score from plate average and StDev

T1 sequence (Q92551 whole entry): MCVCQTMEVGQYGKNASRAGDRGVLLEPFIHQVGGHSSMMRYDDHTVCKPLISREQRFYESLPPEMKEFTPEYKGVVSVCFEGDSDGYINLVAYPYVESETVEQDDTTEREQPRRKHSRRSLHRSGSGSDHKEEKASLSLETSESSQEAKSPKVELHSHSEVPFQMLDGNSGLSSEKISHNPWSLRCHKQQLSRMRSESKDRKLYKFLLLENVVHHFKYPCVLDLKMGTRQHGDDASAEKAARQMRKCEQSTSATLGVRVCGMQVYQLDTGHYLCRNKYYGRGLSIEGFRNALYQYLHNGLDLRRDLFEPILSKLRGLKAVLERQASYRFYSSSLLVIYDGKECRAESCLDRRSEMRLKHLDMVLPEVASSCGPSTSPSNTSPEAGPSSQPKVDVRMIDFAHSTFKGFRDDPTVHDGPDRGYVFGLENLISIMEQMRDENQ

With `CCN(CC)C(=S)SSC(=S)N(CC)CC` [Tetraethylthiuram disulfide] the “Raw Signal” value [1] was 54661 and the Z-score [2] was -0.2648.

With `c1ccc2c(c1)CCCC2C1=NCCN1` (stereo not shown) [Tetrahydrozoline hydrochloride] the “Raw Signal” value [1] was 57605 and the Z-score [3] was 0.3072.

`CC(C)NP(=O)(NC(C)C)OP(=O)(NC(C)C)NC(C)C` [Tetraisopropyl pyrophosphoramide] was tested, and the “Raw Signal” value [1] was 57279 and the Z-score [3] was 0.2439.

`c1ccc(C2CN3CCSC3=N2)cc1` (stereo not shown) [Tetramisole hydrochloride] was tested, and the “Raw Signal” value [4] was 64300 and the Z-score [5] was 1.608.

`C/C=C(/C)C(=O)O[C@H]1C(C)=C2[C@H]([C@@H]1OC(=O)CCCCCCC)[C@@](C)(OC(C)=O)C[C@H](OC(=O)CCC)[C@@]1(O)[C@H]2OC(=O)[C@@]1(C)O` [Thapsigargin] was tested, and the “Raw Signal” value [1] was 56574 and the Z-score [3] was 0.1069.

`Cn1cnc2c1c(=O)[nH]c(=O)n2C` [Theobromine] was tested, and the “Raw Signal” value [4] was 52921 and the Z-score [6] was -0.6028.

`Cn1c(=O)c2[nH]cnc2n(C)c1=O` [Theophylline] was tested, and the “Raw Signal” value [4] was 53365 and the Z-score [6] was -0.5166.

With `NC(=S)c1ccc[n+]([C@@H]2O[C@@H](COP(=O)([O-])OP(=O)(O)OC[C@H]3O[C@@H](n4cnc5c(N)ncnc54)C(OP(=O)([O-])O)[C@H]3O)C(O)C2O)c1.[Na+]` (stereo partly shown) [Thio-NADP sodium] the “Raw Signal” value [1] was 56703 and the Z-score [3] was 0.132.

With `C=C/C(C)=C/[C@@]1(C)SC(=O)C(C)=C1O` [Thiolactomycin] the “Raw Signal” value [1] was 51778 and the Z-score [2] was -0.4395.

`S=C(NC1CCCCC1)N1CCC(c2cnc[nH]2)CC1` [Thioperamide maleate] was tested, and the “Raw Signal” value [1] was 54981 and the Z-score [2] was -0.2026.

For `CSc1ccc2c(c1)N(CCC1CCCCN1C)c1ccccc1S2` (stereo not shown) [Thioridazine hydrochloride], the “Raw Signal” value [1] was 57676 and the Z-score [3] was 0.321.

`CN1CCN(CC/C=C2/c3ccccc3Sc3ccc(S(=O)(=O)N(C)C)cc32)CC1.Cl` [Thiothixene hydrochloride] was tested, and the “Raw Signal” value [4] was 52919 and the Z-score [6] was -0.6032.

With `CCN(CC)CCNC(=O)c1cc(S(C)(=O)=O)ccc1OC` [Tiapride hydrochloride] the “Raw Signal” value [7] was 58277 and the Z-score [8] was 0.4378.

With `Cc1ccc(S(=O)(=O)NC(=O)NN2CCCCCC2)cc1` [Tolazamide] the “Raw Signal” value [4] was 64192 and the Z-score [5] was 1.587.

In the case of `CCCCNC(=O)NS(=O)(=O)c1ccc(C)cc1` [Tolbutamide], the “Raw Signal” value [4] is reported as 65444 and the Z-score [5] is reported as 1.83.

`CNCC[C@@H](Oc1ccccc1C)c1ccccc1` [Tomoxetine] was tested, and the “Raw Signal” value [7] was 58582 and the Z-score [8] was 0.497.

In the case of `CCCCNc1c(C(=O)OCC)c(C)nc2c1cnn2CC` [Tracazolate], the “Raw Signal” value [7] is reported as 59222 and the Z-score [8] is reported as 0.6213.

In the case of `COc1ccc(/C=C/C(=O)Nc2ccccc2C(=O)O)cc1OC` [Tranilast], the “Raw Signal” value [4] is reported as 68948 and the Z-score [5] is reported as 2.511.

With `N[C@@H]1C[C@H]1c1ccccc1` [Tranylcypromine hydrochloride] the “Raw Signal” value [1] was 55566 and the Z-score [3] was -0.08894.

For `O=c1n(CCCN2CCN(c3cccc(Cl)c3)CC2)nc2ccccn12` [Trazodone hydrochloride], the “Raw Signal” value [7] was 58114 and the Z-score [8] was 0.4061.

In the case of `COc1cc2c(cc1OC)-c1c/c(=N\c3c(C)cc(C)cc3C)n(C)c(=O)n1CC2` [Trequinsin hydrochloride], the “Raw Signal” value [1] is reported as 54369 and the Z-score [2] is reported as -0.3215.

In the case of `C[C@]12C=CC(=O)C=C1CC[C@H]1[C@@H]3C[C@@H](O)[C@](O)(C(=O)CO)[C@@]3(C)C[C@H](O)[C@@]12F` [Triamcinolone], the “Raw Signal” value [7] is reported as 60096 and the Z-score [8] is reported as 0.7912.

For `Nc1nc(N)c2nc(-c3ccccc3)c(N)nc2n1` [Triamterene], the “Raw Signal” value [4] was 65476 and the Z-score [5] was 1.836.

For `CN1CCN(CCCN2c3ccccc3Sc3ccc(C(F)(F)F)cc32)CC1` [Trifluoperazine dihydrochloride], the “Raw Signal” value [7] was 58037 and the Z-score [8] was 0.3911.

`O=C(CCCN1CCC(O)(c2cccc(C(F)(F)F)c2)CC1)c1ccc(F)cc1` [Trifluperidol hydrochloride] was tested, and the “Raw Signal” value [1] was 56876 and the Z-score [3] was 0.1656.

In the case of `CN(C)CCCN1c2ccccc2Sc2ccc(C(F)(F)F)cc21` [Triflupromazine hydrochloride], the “Raw Signal” value [1] is reported as 54007 and the Z-score [2] is reported as -0.3918.

With `OC(CCN1CCCCC1)(c1ccccc1)C1CCCCC1` (stereo not shown) [Trihexyphenidyl hydrochloride] the “Raw Signal” value [7] was 57771 and the Z-score [8] was 0.3394.

In the case of `COc1cc(Cc2cnc(N)nc2N)cc(OC)c1OC` [Trimethoprim], the “Raw Signal” value [7] is reported as 61776 and the Z-score [8] is reported as 1.118.

With `CC(CN(C)C)CN1c2ccccc2CCc2ccccc21` (stereo not shown) [Trimipramine maleate] the “Raw Signal” value [4] was 53117 and the Z-score [6] was -0.5647.

With `Cc1ccc(/C(=C\CN2CCCC2)c2ccccn2)cc1.Cl` [Triprolidine hydrochloride] the “Raw Signal” value [1] was 57463 and the Z-score [3] was 0.2796.

For `NCCc1c[nH]c2ccccc12` [Tryptamine hydrochloride], the “Raw Signal” value [7] was 60596 and the Z-score [8] was 0.4725.

`CC(C)(C)NCC(O)c1ccccc1Cl` (stereo not shown) [Tulobuterol hydrochloride] was tested, and the “Raw Signal” value [1] was 54303 and the Z-score [2] was -0.3343.

`N#CC(C#N)=Cc1ccc(O)c(O)c1` [Tyrphostin 23] was tested, and the “Raw Signal” value [4] was 48444 and the Z-score [6] was -1.473.

With `N#CC(C#N)=Cc1cc(O)c(O)c(O)c1` [Tyrphostin 25] the “Raw Signal” value [4] was 46819 and the Z-score [6] was -1.788.

`N#C/C(=C\c1ccc(O)c(O)c1)C(N)=S` [Tyrphostin 47] was tested, and the “Raw Signal” value [4] was 42103 and the Z-score [6] was -2.705.

For `N#CC(C#N)=C(N)/C(C#N)=C/c1cc(O)c(O)c(O)c1` [Tyrphostin 51], the “Raw Signal” value [4] was 44032 and the Z-score [6] was -2.33.

For `CC(C)(C)c1cc(C=C(C#N)C#N)cc(C(C)(C)C)c1O` [Tyrphostin A9], the “Raw Signal” value [1] was 55633 and the Z-score [3] was -0.07593.

`COc1cc(C=C(C#N)C#N)cc(O)c1O` [Tyrphostin AG 34] was tested, and the “Raw Signal” value [1] was 55934 and the Z-score [3] was -0.01745.

`N#CC(C#N)=C(N)/C(C#N)=C/c1ccc(O)cc1` [Tyrphostin AG 112] was tested, and the “Raw Signal” value [4] was 52903 and the Z-score [6] was -0.6063.

In the case of `N#CC(C#N)=Cc1ccc([N+](=O)[O-])c(O)c1` [Tyrphostin AG 126], the “Raw Signal” value [4] is reported as 65028 and the Z-score [5] is reported as 1.749.

In the case of `N#C/C(=C\c1ccc(O)c(O)c1)C(=O)NCc1ccccc1` [Tyrphostin AG 490], the “Raw Signal” value [1] is reported as 54184 and the Z-score [2] is reported as -0.3574.

With `N#C/C(=C\c1ccc(O)c(O)c1)C(=O)Nc1ccccc1` [Tyrphostin AG 494] the “Raw Signal” value [1] was 54872 and the Z-score [2] was -0.2238.

`C[C@@H](NC(=O)/C(C#N)=C/c1ccc(O)c(O)c1)c1ccccc1` [Tyrphostin AG 527] was tested, and the “Raw Signal” value [1] was 54153 and the Z-score [2] was -0.3635.

`N#C/C(=C\c1ccc(O)c(O)c1)C(=O)N1CCc2ccccc21` [Tyrphostin AG 528] was tested, and the “Raw Signal” value [7] was 58882 and the Z-score [8] was 0.5553.

`N#C/C(=C\c1ccc(O)c(O)c1)C(=O)NCCCNC(=O)/C(C#N)=C/c1ccc(O)c(O)c1` [Tyrphostin AG 537] was tested, and the “Raw Signal” value [4] was 33325 and the Z-score [6] was -4.41.

For `N#C/C(=C\c1ccc(O)c(O)c1)C(=O)c1ccc(O)c(O)c1` [Tyrphostin AG 538], the “Raw Signal” value [4] was 38614 and the Z-score [6] was -3.382.

`N#C/C(=C\c1ccc(O)c(O)c1)C(=O)NCCCc1ccccc1` [Tyrphostin AG 555] was tested, and the “Raw Signal” value [1] was 55783 and the Z-score [3] was -0.04678.

From article PMC5706701, “Development of a homogenous high-throughput assay for inositol hexakisphosphate kinase 1 activity” (PLoS ONE, 2017)
